The source made the active and inactive calls.
Legend:
[1] = Vero cell cytotoxicity, dose response, cytotoxicity control for Vif-APOBEC3G degradation inhibitor project, Vero cells (AID 1117358); assay type: functional; conditions: Human immunodeficiency virus 1, Vero
[2] = target: Serine/threonine-protein phosphatase PP1-alpha catalytic subunit (Homo sapiens, UniProt P62136); assay: PP1 phosphatase inhibitors, dose response, biochemical, fluorescence (AID 2403);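 also: phosphatase turnover of OMFP into fluorescent 3-O-methylfluorescein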
Serine/threonine-protein phosphatase PP1-alpha catalytic subunit, sequence (P62136 whole entry): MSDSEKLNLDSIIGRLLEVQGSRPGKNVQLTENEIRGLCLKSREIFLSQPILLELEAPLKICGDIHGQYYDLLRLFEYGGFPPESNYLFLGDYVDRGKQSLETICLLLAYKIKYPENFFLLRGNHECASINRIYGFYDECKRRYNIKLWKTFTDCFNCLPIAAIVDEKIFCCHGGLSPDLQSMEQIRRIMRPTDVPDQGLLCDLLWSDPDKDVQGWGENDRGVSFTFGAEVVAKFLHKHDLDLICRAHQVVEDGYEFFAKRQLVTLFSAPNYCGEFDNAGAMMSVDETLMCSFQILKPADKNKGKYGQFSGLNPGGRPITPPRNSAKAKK

[3] = microbe, parasite or virus in culture; assay type: functional; conditions: Mycobacterium tuberculosis
[4] = target: Serine/threonine-protein phosphatase (Homo sapiens, UniProt Q9BPW0); assay: Counterscreen for inhibitors of PP1: fluorescence-based biochemical high throughput dose response assay to identify inhibitors of Protein Phosphatase 5 (PP5). [Related pubchem assays: 2034 (Summary (PP5 inhibitors)), 1987 (PP5 inhibitors in singlate), 2235 (PP1 inhibitors in singlate)]
[5] = Artemis endonuclease inhibitor potency, dose response, biochemical, fluorescence intensity (AID 720701); assay type: functional;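 also: Artemis endonuclease enzyme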
[6] = target: Cytochrome P450 2C9 (Homo sapiens, UniProt P11712)
[7] = target: T1, DNA repair protein RAD52 homolog (Homo sapiens, UniProt P43351); assay type: functional, biochemical
T1 sequence (P43351 whole entry): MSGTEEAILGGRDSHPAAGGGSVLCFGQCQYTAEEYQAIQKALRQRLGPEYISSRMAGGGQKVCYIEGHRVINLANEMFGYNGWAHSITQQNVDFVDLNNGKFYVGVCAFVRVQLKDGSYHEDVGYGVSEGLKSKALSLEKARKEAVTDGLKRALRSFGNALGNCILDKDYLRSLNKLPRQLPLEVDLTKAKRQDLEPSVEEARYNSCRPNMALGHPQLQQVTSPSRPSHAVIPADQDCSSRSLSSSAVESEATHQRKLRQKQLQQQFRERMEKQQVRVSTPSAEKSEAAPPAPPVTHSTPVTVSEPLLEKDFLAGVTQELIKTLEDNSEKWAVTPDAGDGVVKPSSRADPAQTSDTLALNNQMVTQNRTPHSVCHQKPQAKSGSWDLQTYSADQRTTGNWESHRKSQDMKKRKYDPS

[8] = target: RNA-editing ligase 1, mitochondrial (Trypanosoma brucei brucei, UniProt P86926); assay: TbREL1 ligase inhibitors, dose response, biochemical, fluorescence, Trypanosoma brucei (AID 1117295); assay type: functional
RNA-editing ligase 1, mitochondrial, sequence (P86926 whole entry): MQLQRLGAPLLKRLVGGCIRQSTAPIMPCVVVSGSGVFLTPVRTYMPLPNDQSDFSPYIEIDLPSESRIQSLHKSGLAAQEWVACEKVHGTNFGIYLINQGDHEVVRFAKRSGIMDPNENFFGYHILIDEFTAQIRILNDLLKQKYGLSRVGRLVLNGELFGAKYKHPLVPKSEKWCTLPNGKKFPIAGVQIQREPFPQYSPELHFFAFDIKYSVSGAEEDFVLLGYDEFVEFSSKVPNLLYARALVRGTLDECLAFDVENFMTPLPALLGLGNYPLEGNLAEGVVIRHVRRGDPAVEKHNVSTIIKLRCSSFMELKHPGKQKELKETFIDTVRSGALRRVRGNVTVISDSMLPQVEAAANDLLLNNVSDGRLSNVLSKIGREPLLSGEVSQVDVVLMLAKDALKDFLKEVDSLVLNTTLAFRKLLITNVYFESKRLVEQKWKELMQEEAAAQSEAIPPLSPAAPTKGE

[9] = inhibitors of firefly luciferase expression or activity, dose response, H4 neuroglioma cells, luminescence (AID 1990); assay type: functional, cell-based
[10] = Luminescence Cell-Based Dose Response HTS to Identify Inhibitors of 5'UTR Stem-Loop Driven Prion Protein mRNA Translation in H4 Neuroglioblastoma Cells. [Related pubchem assays: 1827 (Project Summary), 1813 (Primary HTS)]; assay type: functional
[11] = inhibitors of SNCA 5'UTR-driven reporter translation, confirmation, H4 neuroglioma cells, luminescence (AID 1988); assay type: functional, cell-based
[12] = inhibitors of Vif binding to APOBEC3G peptide, primary screen, biochemical, TR-FRET, GST-Vif 1-94, biotin-A3G peptide, dose response retest (AID 1117319); assay type: functional;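 also: TR-FRET signal of purified GST-Vif binding a biotinylated A3G peptide; inhibitors lower the FRET signal by blocking Vif and A3G binding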
[13] = target: NAD-dependent protein deacylase sirtuin-5, mitochondrial (Homo sapiens, UniProt Q9NXA8); assay: SIRT5 desuccinylase inhibitors, dose response, biochemical, fluorescence imaging, cherry-pick, set 5 (AID 720591);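 also: desuccinylation of succinyl peptide AMC substrate read as fluorescence after trypsin release; potency of inhibitors that lower fluorescence and may act on trypsin instead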
NAD-dependent protein deacylase sirtuin-5, mitochondrial, sequence (Q9NXA8 whole entry): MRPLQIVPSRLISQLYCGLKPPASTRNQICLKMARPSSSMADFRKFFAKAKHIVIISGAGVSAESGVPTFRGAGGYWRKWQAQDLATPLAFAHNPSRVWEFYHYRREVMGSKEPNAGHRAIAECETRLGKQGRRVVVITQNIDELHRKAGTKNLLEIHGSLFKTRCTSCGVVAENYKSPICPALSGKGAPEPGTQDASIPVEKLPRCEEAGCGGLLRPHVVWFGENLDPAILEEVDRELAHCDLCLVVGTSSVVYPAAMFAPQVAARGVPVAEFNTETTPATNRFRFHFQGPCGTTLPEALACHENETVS

[14] = target: Peroxisome proliferator-activated receptor gamma/Nuclear receptor coactivator 1 (Homo sapiens, UniProt P37231); assay: (§1) TR-FRET dose response biochemical High Throughput Screening assay for agonists of the steroid receptor coactivator 1 (SRC-1) recruitment by the peroxisome proliferator-activated receptor gamma (PPAR gamma): non-selective agonists. [Related pubchem assays (depositor defined):AID1300, AID1808, AID504735, AID631]; assay type: protein assay
Peroxisome proliferator-activated receptor gamma/Nuclear receptor coactivator 1, sequence (P37231 whole entry): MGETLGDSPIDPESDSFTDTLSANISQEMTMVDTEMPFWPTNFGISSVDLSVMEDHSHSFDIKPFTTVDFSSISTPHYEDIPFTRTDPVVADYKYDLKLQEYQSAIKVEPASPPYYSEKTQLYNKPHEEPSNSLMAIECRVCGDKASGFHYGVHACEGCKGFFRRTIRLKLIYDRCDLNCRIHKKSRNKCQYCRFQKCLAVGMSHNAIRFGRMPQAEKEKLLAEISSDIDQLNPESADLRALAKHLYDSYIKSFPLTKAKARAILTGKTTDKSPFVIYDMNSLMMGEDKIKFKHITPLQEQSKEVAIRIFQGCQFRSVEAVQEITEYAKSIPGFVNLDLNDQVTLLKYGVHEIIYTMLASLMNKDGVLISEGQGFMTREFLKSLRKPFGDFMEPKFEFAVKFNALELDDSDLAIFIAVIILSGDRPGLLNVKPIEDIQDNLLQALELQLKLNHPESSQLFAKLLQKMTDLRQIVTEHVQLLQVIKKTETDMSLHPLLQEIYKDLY
Peroxisome proliferator-activated receptor gamma/Nuclear receptor coactivator 1, sequence (Q15788 whole entry, further chain): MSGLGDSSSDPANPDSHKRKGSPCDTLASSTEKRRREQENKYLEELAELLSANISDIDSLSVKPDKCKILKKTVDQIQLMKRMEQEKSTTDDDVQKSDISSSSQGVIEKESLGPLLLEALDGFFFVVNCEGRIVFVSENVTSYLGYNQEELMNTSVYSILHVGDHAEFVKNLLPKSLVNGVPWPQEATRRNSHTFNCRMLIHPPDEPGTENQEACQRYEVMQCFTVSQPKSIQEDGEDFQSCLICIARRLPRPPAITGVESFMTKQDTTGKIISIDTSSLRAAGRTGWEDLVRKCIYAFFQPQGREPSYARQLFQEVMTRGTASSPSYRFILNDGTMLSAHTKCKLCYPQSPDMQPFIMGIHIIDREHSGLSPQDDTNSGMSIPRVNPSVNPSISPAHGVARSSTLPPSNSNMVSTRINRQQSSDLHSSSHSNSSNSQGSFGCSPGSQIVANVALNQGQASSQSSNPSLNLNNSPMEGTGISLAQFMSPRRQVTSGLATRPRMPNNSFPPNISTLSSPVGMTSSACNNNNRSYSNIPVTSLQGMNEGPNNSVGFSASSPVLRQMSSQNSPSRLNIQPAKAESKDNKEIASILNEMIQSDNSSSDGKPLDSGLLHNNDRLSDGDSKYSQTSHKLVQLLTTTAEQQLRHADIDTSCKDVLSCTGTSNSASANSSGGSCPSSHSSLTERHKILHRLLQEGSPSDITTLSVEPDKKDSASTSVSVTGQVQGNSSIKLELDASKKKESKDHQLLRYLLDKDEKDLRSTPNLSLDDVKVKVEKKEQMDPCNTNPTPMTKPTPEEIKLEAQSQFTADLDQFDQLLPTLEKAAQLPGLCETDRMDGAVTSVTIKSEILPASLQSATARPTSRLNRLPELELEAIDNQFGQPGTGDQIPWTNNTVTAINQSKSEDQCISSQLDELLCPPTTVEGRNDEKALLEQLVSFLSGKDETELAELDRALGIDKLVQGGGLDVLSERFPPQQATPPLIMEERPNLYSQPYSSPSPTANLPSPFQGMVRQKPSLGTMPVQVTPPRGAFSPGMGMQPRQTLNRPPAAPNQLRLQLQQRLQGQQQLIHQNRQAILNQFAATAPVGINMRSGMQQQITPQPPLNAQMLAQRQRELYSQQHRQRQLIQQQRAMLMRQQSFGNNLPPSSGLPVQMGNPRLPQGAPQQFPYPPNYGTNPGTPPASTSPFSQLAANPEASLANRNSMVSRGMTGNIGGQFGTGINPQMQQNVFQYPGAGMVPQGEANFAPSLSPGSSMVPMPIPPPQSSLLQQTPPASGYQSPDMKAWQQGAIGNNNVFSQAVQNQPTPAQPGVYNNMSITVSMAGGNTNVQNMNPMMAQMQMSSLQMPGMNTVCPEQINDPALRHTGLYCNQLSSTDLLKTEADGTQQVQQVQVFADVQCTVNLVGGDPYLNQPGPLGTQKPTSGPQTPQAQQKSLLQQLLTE

[15] = target: Ubiquitin carboxyl-terminal hydrolase BAP1 (Homo sapiens, UniProt Q92560); assay: BAP1 deubiquitinase inhibitors, dose response, biochemical (AID 714); assay type: functional
[16] = target: Peroxisome proliferator-activated receptor gamma/Nuclear receptor coactivator 3 (Homo sapiens, UniProt P37231); assay: as §1, with “3 (SRC-3)” for “1 (SRC-1)”, “assays: 1301 (Confirmation screen.), 1048 (Primary screen.)]” for “assays (depositor defined):AID1300, AID1808, AID504735, AID631]”; assay type: functional
Peroxisome proliferator-activated receptor gamma/Nuclear receptor coactivator 3, sequence (P37231 whole entry): as the sequence (P37231 whole entry) above
Peroxisome proliferator-activated receptor gamma/Nuclear receptor coactivator 3, sequence (Q9Y6Q9 whole entry, further chain): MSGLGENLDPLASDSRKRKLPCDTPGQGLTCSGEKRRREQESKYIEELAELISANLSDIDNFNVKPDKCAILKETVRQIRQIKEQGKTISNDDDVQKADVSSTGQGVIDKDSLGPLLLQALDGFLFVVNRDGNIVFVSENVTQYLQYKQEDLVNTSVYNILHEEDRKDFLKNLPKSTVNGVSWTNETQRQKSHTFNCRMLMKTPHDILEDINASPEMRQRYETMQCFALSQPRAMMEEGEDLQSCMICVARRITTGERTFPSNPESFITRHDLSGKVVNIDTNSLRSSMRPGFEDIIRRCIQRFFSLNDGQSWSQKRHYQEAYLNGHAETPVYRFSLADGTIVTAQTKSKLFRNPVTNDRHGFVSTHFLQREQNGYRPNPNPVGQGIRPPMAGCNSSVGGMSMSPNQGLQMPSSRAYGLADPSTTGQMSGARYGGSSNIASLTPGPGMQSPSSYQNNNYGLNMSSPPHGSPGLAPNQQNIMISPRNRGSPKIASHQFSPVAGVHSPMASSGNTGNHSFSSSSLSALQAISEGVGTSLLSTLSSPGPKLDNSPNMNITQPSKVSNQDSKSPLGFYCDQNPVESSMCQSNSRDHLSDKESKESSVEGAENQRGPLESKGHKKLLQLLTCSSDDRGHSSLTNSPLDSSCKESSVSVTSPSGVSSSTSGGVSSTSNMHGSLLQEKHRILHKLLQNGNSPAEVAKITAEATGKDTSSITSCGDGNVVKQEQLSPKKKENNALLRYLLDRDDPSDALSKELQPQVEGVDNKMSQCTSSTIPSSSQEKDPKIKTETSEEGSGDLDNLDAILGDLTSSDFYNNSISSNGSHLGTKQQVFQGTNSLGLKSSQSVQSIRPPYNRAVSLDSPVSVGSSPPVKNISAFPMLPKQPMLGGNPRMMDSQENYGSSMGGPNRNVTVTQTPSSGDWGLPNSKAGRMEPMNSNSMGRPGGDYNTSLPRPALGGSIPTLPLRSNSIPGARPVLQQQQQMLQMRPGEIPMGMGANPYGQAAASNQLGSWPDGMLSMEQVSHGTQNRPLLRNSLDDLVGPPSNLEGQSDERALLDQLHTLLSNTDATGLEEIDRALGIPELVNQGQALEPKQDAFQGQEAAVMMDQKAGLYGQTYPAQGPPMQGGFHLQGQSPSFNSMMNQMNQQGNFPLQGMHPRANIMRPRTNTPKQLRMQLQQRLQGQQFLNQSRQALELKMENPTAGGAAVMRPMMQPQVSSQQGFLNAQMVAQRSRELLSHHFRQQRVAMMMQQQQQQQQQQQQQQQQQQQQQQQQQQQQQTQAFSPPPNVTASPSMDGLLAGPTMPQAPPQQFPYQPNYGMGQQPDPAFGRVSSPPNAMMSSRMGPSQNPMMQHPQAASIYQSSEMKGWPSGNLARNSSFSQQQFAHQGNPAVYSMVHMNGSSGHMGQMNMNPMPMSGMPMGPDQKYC

[17] = target: Peroxisome proliferator-activated receptor gamma/Nuclear receptor coactivator 2 (Homo sapiens, UniProt P37231); assay: TR-FRET dose response biochemical High Throughput Screening assay for agonists of the steroid receptor coactivator 2 (SRC-2) recruitment by the peroxisome proliferator-activated receptor gamma (PPAR gamma): non-selective agonists. [Related pubchem assays: 1297, 1032 ]; assay type: functional
[18] = target: T2, Protein skinhead-1 (Caenorhabditis elegans, UniProt P34707); assay type: functional
T2 sequence (P34707 whole entry): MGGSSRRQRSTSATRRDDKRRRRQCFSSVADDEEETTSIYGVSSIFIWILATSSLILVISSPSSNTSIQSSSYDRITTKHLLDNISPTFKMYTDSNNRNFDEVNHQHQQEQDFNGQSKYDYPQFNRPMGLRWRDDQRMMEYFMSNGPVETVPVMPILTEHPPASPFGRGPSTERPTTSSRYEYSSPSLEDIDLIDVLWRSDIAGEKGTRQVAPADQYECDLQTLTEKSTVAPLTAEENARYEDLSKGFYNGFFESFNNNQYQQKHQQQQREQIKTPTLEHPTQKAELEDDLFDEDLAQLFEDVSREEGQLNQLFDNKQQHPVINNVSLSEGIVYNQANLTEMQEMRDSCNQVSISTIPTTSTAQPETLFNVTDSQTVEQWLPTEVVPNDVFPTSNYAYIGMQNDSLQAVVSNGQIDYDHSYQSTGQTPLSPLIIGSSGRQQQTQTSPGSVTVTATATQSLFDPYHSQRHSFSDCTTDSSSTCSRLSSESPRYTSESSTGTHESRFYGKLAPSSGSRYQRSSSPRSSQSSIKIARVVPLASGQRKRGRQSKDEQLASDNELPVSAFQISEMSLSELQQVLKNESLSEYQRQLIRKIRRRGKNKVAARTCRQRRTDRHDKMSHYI

[19] = target: Oxysterols receptor LXR-beta (Homo sapiens, UniProt P55055); assay type: functional, cell-based;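 also: Cell-based luminescence dose-response assay of agonist activity at LXR, run as a confirmatory counterscreen to a daf-12 agonist screen; HEK293 cells with Gal4-LXR fusion and GAL4-driven luciferase reporter; agonist potency from rising luciferase signal of a Gal4-LXR reporter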
[20] = cells
[21] = THP-1 cell cytotoxicity, dose response, cytotoxicity control for Vif-APOBEC3G degradation inhibitor project, THP-1 cells (AID 1117359); assay type: functional; conditions: Human immunodeficiency virus 1, THP-1

O=C(CSc1nc2cc(Cl)ccc2s1)N1CCN(C(=O)c2ccco2)CC1
CC50 [1]: > 40 µM (active)

c1ccc(-c2nccc(-c3ccc(-n4cnc5ccccc54)cc3)n2)nc1
IC50 [2]: 4 µM (active) | CC50 [3]: > 40 µM (active) | IC50 [4]: 57.6 µM (not active) | IC50 [5]: 4.65 µM (active) | AC50 [6]: 22.4 µM (inconclusive)

COc1ccccc1N(Cc1ccccc1)S(=O)(=O)c1cccc(C(=O)NC2CC(C)(C)NC(C)(C)C2)c1
AC50 [7]: 13.4 µM (active) | IC50 [8]: > 96.6 µM (inactive)

Cc1ccc(NCc2nnc(SCc3ccc(C#N)cc3)n2Cc2ccco2)c(C)c1
EC50 [9]: > 120 µM (not active) | EC50 [10]: > 120 µM (not active) | EC50 [11]: > 120 µM (not active) | IC50 [12]: > 100 µM (active)

COc1ccc(CN(C(=O)c2ccco2)c2ccc(C)c(C)c2)cc1
AC50 [13]: 24.7 µM (active)

O=C(Nc1nnc(-c2ccco2)s1)C1CCN(S(=O)(=O)c2ccc(Cl)cc2)CC1
EC50 [14]: 56.6 µM (inactive) | IC50 [15]: > 50 µM (not active) | EC50 [16]: > 79.4 µM (not active) | EC50 [17]: 31.4 µM (not active)

Clc1ccc(C=Cc2ccccn2)c(Cl)c1
IC50 [18]: 4.24 µM (active) | EC50 [19]: > 67.6 µM (inactive) | EC50 [20]: > 67.6 µM (inactive)

Cc1cc(N(CCCl)CCCl)ccc1C=NNC(=O)c1cccnc1
CC50 [21]: 20 µM (active)
